Here are results for 34 molecules from patent US20040152904A1, “Delta1 pyrrolines” (priority 2001, published 2004).

Data set [1] is described as follows: logP by HPLC (EEC Directive 79/831 Annex V.A8, reversed-phase C 18). The data set is classed as physicochemical. To be noted: reversed-phase HPLC column (C 18). Here is the method: The stated logP values were determined in accordance with EEC Directive 79/831 Annex V.A8 by HPLC (High Performance Liquid Chromatography) using a reversed-phase column (C 18). Temperature: 43° C.
In the acidic range, the determination was carried out at pH 2.3 using the mobile phases 0.1% aqueous phosphoric acid and acetonitrile; linear gradient from 10% acetonitrile to 90% acetonitrile.
In the neutral range, the determination was carried out at pH 7.5 using the mobile phases 0.01 molar aqueous phosphate buffer solution and acetonitrile; linear gradient from 10% acetonitrile to 90% acetonitrile.
Calibration was carried out using unbranched alkan-2-ones (having 3 to 16 carbon atoms) with known logP values (determination of the logP values by the retention times using linear interpolation between two successive alkanones).

For data set [2], the system named is Amblyomma variegatum or A. hebraeum, nymphs which have sucked themselves full. Put plainly: Nymphecdysis test on polyphagous ticks. It is filed as in vivo. To be noted: for activity in the nymphecdysis test: in vivo; for Effect on ecdysis in % after 48h: 100 ppm active compound, nymphs immersed for 1 minute. The protocol: Nymphecdysis Test on Polyphagous Ticks
Test animals: Amblyomma variegatum or A. hebraeum, nymphs which have sucked themselves full
Solvent: Dimethyl sulphoxide
20 mg of active compound are dissolved in 1 ml of dimethyl sulphoxide, more dilute concentrations are prepared by dilution with distilled water.
10 nymphs which have sucked themselves full are immersed for 1 minute into the preparation of active compound to be tested. The animals are transferred to petri dishes (∅ 9.5 cm) fitted with filter discs and covered. […]
100% means that none of the animals have undergone normal ecdysis. 0% means that all animals have undergone ecdysis.
In this test, for example, the compounds 4 and 5 of the preparation examples show good activity.

In data set [3] the test system is Heliothis virescens caterpillars. Kind of data set: Heliothis virescens test. The data set is classed as in vivo. The conditions noted are these: 40 ppm active compound, soyabean shoots dipped. Here is the method:
(§1) Heliothis virescens Test Solvent: 30 parts by weight of dimethylformamide Emulsifier: 1 part by weight of alkylaryl polyglycol ether To produce a suitable preparation of active compound, 1 part by weight of active compound is mixed with the stated amounts of solvent and emulsifier, and the concentrate is diluted with emulsifier-containing water to the desired concentration. Soyabean shoots (Glycine max) are treated by being dipped into the preparation of active compound of the desired concentration and are populated with Heliothis virescens caterpillars whilst the leaves are still moist. After the desired period of time, the kill in % is determined. 100% means that all caterpillars have been killed; 0% means that none of the caterpillars have been killed.

Data set [4] concerns larvae of the mustard beetle (Phaedon cochleariae). Put plainly: Phaedon larvae test. It is filed as in vivo. To be noted: 1000 ppm active compound, cabbage leaves dipped. The protocol:
as §1, with “Phaedon larvae” for “Heliothis virescens”, “Cabbage leaves (Brassica oleracea)” for “Soyabean shoots (Glycine max)”, “larvae of the mustard beetle (Phaedon cochleariae)” for “Heliothis virescens caterpillars”, “beetle larvae” for “caterpillars”

Data set [5] deals with army worm (Spodoptera frugiperda) caterpillars. Kind of data set: Spodoptera frugiperda test. The conditions noted are these: 1000 ppm active compound, cabbage leaves dipped. The data set is classed as in vivo. The protocol: as §1, with “Spodoptera frugiperda Test” for “Heliothis virescens Test”, “concentration. Cabbage leaves (Brassica oleracea)” for “concentration. Soyabean shoots (Glycine max)”, “with army worm (Spodoptera frugiperda)” for “with Heliothis virescens”

The subject of data set [6] is greenhouse red spider mite (tetranychus urticae). Put plainly: Tetranychus test (OP-resistant/dip treatment). The data set is classed as in vivo. To be noted: 100 ppm active compound, bean plants dipped. Here is the method: Tetranychus Test (OP-Resistant/Dip Treatment)
Solvent: 30 parts by weight of dimethylformamide
Emulsifier: 1 part by weight of alkylaryl polyglycol ether
To produce a suitable preparation of active compound, 1 part by weight of active compound is mixed with the stated amounts of solvent and emulsifier, and the. concentrate is diluted with emulsifier-containing water to the. desired concentration.
Bean plants (Phaseolus vulgaris) which are heavily infested by all stages of the greenhouse red spider mite (tetranychus urticae) are dipped into a preparation of active compound of the desired concentration.
After the desired period of time, the effect in % is determined. 100% means that all spider mites have been killed; 0% means that none of the spider mites have been killed.

The mark [7] stands for this setting: pH 2.3, 0.1% aqueous phosphoric acid / acetonitrile, 43° C., read-out: logP (pH 2.3).
Setting [8] is: pH not printed at the place, read-out: logP.

Read-outs that look alike come from different tables or passages of the source.

`N#Cc1ccc(-c2ccccc2C2CCC(=O)N2)cc1` (centres unmarked) [2′-(5-oxo-2-pyrrolidinyl)-1,1′-biphenyl-4carbonitrile]: the chromatographic logP in data set [1] (setting [7]) was 1.94.
Same read-out and setting: the figure for `CCCn1nnc(-c2ccc(C3CCC(c4c(F)cccc4F)=N3)cc2)n1` (centres unmarked) [Example 1] is 2.61.
As for `CC(C)(C)n1nnc(-c2ccc(-c3ccc(C4CCC(c5c(F)cccc5F)=N4)cc3)cc2)n1` (centres unmarked) [Example 2, 2-tert-butyl-5-{4′-[5-(2,6-difluorophenyl)-3,4dihydro-2H-pyrrol-2-yl]-1,1′-biphenyl-4-yl}-2H-tetrazole], the melting point (usually the temperature, or range, at which the solid turns liquid) turned out to be 96 °C. Besides, the chromatographic logP in data set [1] (setting [7]) is 4.14.
As for `CC(C)(C)n1nnc(-c2ccc(-c3ccc(C4CCC(c5c(F)cccc5F)=N4)cc3)cc2)n1` (centres unmarked) [Example 3, 2-tert-butyl-5-{4′-[5-(2,6-difluorophenyl)-3,4dihydro-2H-pyrrol-2-yl]-1′-biphenyl-4-yl}-2H-tetrazole], the chromatographic logP in data set [1] (setting [8]) is 4.14.
In the case of `CCOCn1nnc(-c2ccc(-c3ccc(C4CCC(c5c(F)cccc5F)=N4)cc3)cc2)n1` (centres unmarked) [Example 4, 5-{4′-[5-(2,6-difluorophenyl)-3,4-dihydro-2H-pyrrol-2-yl]-1,1′-biphenyl-4-yl}-2-(ethoxymethyl)-2H-tetrazole], in data set [2], the “activity in the nymphecdysis test” value is “good activity”. In data set [1] (setting [8]), the chromatographic logP was 3.4.
Take `CCn1nnc(-c2ccc(-c3ccc(C4CCC(c5c(F)cccc5F)=N4)cc3)cc2)n1` (centres unmarked) [Example 5, 5-{4′-[5-(2,6-difluorophenyl)-3,4-dihydro-2Hpyrrol-2-yl]-1,1′-biphenyl-4-yl}-2-ethyl-2H-tetrazole]: the “activity in the nymphecdysis test” value in data set [2] is “good activity”. For the same molecule, the chromatographic logP in data set [1] (setting [7]) worked out at 3.21.
For `CC(C)(C)n1nnc(-c2ccc(B(O)O)cc2)n1` [Example V-1, 4-[(2-tert-butyl)-2H-tetrazol-5-yl]phenylboronic acid], the chromatographic logP in data set [1] (setting [7]) stood at 2.01.
With `OB(O)c1ccc(-c2nn[nH]n2)cc1` [Example V-2, 4-(2H-tetrazol-5-yl)-phenylboronic acid], the chromatographic logP in data set [1] (setting [7]) came out at 0.19.
As to `Fc1cccc(F)c1C1=NC(c2ccc(-c3nn[nH]n3)cc2)CC1` (centres unmarked) [I-a-1], the chromatographic logP in data set [1] (setting [7]) is 1.28.
As for `CC(C)(C)n1nnc(-c2ccc(Br)cc2)n1` [VII-1, 2-tert-butyl-5-(4-bromo-phenyl)-1(2)H-tetrazole], in data set [1] (setting [7]), the chromatographic logP came to 4.23.
Turning to `CCOCn1nnc(-c2ccc(Br)cc2)n1` [VII-2, 2-ethoxymethyl-5-(4-bromo-phcnyl)-1(2)H tetrazole], the chromatographic logP in data set [1] (setting [7]) amounted to 3.42.
Still for that read-out and setting: the figure for `CCn1nnc(-c2ccc(Br)cc2)n1` [VII-3, 2-ethyl-5-(4-bromo-phenyl)-1(2)H-tetrazole] is 3.2.
For the molecule `N#Cc1ccc(C2CCC(c3c(F)cccc3F)=N2)cc1` (centres unmarked) [VIII-1, 4-[5-(2,6-difluorophenyl)-3,4-dihydro-2Hpyrrol-2-yl]benzonitrile], the melting point was 57 °C. For the same molecule, the chromatographic logP in data set [1] (setting [7]) came out at 2.11.
`N#Cc1ccc(-c2ccc(C3CCC(c4c(F)cccc4F)=N3)cc2)cc1` (centres unmarked) [VIII-2, 4′-[5-(2,6-difluorophenyl)-3,4-dihydro-2H-pyrrol-2-yl]-1,1′-biphenyl-4carbonitrile] displayed a melting point of 123 °C. Also, the chromatographic logP in data set [1] (setting [7]) is 2.84.
Regarding `CC(C)(C)OC(=O)N1C(=O)CCC1c1ccc(C#N)cc1` (centres unmarked) [XI-1, tert-butyl-2-(4-cyanophenyl)-5-oxo-1-pyrrolidinecarboxylate], the chromatographic logP in data set [1] (setting [7]) is 2.12.
As to `CC(C)(C)OC(=O)N1C(=O)CCC1c1ccc(-c2ccc(C#N)cc2)cc1` (centres unmarked) [XI-2, tert-butyl 2(4′-cyano-1,1′-biphenyl-4-yl)-5-oxo-1-pyrrolidinecarboxylate], the melting point is 152 °C. For the same molecule, the chromatographic logP in data set [1] (setting [7]) was 3.03.
`N#Cc1ccc(C2CCC(=O)N2)cc1` (centres unmarked) [XIII-a-1, 4-(5-oxo-2-pyrrolidinyl)benzonitrile]: the melting point came out at 155 °C. Besides, the chromatographic logP in data set [1] (setting [7]) worked out at 0.96.
As for `N#Cc1ccc(-c2ccc(C3CCC(=O)N3)cc2)cc1` (centres unmarked) [XIII-b-1, 4′-(5-oxo-2-pyrrolidinyl)-1,1′-biphenyl-4carbonitrile], in data set [1] (setting [7]), the chromatographic logP was determined as 1.92.
As to `CC(C)(C)n1nnc(-c2ccc(-c3ccc(C4CCC(c5c(F)cccc5F)=N4)cc3)cc2)n1` (centres unmarked) [drawing 54], the “Kill rate in % after 6d” value in data set [3] was found to be 100%.
Take `CCn1nnc(-c2ccc(-c3ccc(C4CCC(c5c(F)cccc5F)=N4)cc3)cc2)n1` (centres unmarked) [drawing 55]: the “Kill rate in % after 6d” value in data set [3] worked out at 100%.
On to `CC(C)(C)n1nnc(-c2ccc(-c3ccc(C4CCC(c5c(F)cccc5F)=N4)cc3)cc2)n1` (centres unmarked) [drawing 56], for which the “Kill rate in % after 7d” value in data set [4] was 100%.
For the molecule `CCCn1nnc(-c2ccc(C3CCC(c4c(F)cccc4F)=N3)cc2)n1` (centres unmarked) [drawing 57], the “Kill rate in % after 7d” value in data set [4] turned out to be 100%.
For the molecule `CCn1nnc(-c2ccc(-c3ccc(C4CCC(c5c(F)cccc5F)=N4)cc3)cc2)n1` (centres unmarked) [drawing 58], in data set [4], the “Kill rate in % after 7d” value is recorded as 100%.
The same measure, in the same setting: the figure for `CCOCn1nnc(-c2ccc(-c3ccc(C4CCC(c5c(F)cccc5F)=N4)cc3)cc2)n1` (centres unmarked) [drawing 59] is 100%.
Take `CC(C)(C)n1nnc(-c2ccc(-c3ccc(C4CCC(c5c(F)cccc5F)=N4)cc3)cc2)n1` (centres unmarked) [drawing 63]: in data set [5], the “Kill rate in % after 7d” value turned out to be 100%.
Regarding `CCCn1nnc(-c2ccc(C3CCC(c4c(F)cccc4F)=N3)cc2)n1` (centres unmarked) [drawing 64], in data set [5], the “Kill rate in % after 7d” value was 100%.
Regarding `CCn1nnc(-c2ccc(-c3ccc(C4CCC(c5c(F)cccc5F)=N4)cc3)cc2)n1` (centres unmarked) [drawing 65], the “Kill rate in % after 7d” value in data set [5] is recorded as 100%.
For `CCOCn1nnc(-c2ccc(-c3ccc(C4CCC(c5c(F)cccc5F)=N4)cc3)cc2)n1` (centres unmarked) [drawing 66], in data set [5], the “Kill rate in % after 7d” value turned out to be 100%.
`CC(C)(C)n1nnc(-c2ccc(-c3ccc(C4CCC(c5c(F)cccc5F)=N4)cc3)cc2)n1` (centres unmarked) [drawing 67]: the “Kill rate in % after 7d” value in data set [6] amounted to 98%.
As to `CCCn1nnc(-c2ccc(C3CCC(c4c(F)cccc4F)=N3)cc2)n1` (centres unmarked) [drawing 68], the “Kill rate in % after 7d” value in data set [6] amounted to 90%.
`CCn1nnc(-c2ccc(-c3ccc(C4CCC(c5c(F)cccc5F)=N4)cc3)cc2)n1` (centres unmarked) [drawing 69]: the “Kill rate in % after 7d” value in data set [6] was 98%.
Take `CCOCn1nnc(-c2ccc(-c3ccc(C4CCC(c5c(F)cccc5F)=N4)cc3)cc2)n1` (centres unmarked) [drawing 70]: the “Kill rate in % after 7d” value in data set [6] is recorded as 98%.
In the case of `CCn1nnc(-c2ccc(-c3ccc(C4CCC(c5c(F)cccc5F)=N4)cc3)cc2)n1` (centres unmarked) [drawing 73], in data set [2], the “Effect on ecdysis in % after 48h” value is on record as 100%.
Regarding `CCOCn1nnc(-c2ccc(-c3ccc(C4CCC(c5c(F)cccc5F)=N4)cc3)cc2)n1` (centres unmarked) [drawing 74], the “Effect on ecdysis in % after 48h” value in data set [2] is 100%.
